Assay results from ChEMBL document CHEMBL1201862, “PubChem BioAssay data set” (2004).
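Each compound was tested at five concentrations against cells in 96-well plates for 48 hours. GI50 marks 50% less growth.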 The source made the active and inactive calls. Rule as the data show it: active = GI50 up to about 1.1 µM and inactive = higher.

Experiments:
Assay in all cases: NCI-60 cell line screen, 48 h
TK-10 = tested on: TK-10
DMS-273 = tested on: DMS-273
KM-20L2 = tested on: KM-20L2
DLD-1 = tested on: DLD-1
HL-60 = tested on: HL-60
SNB-75 = tested on: SNB-75
HOP-92 = tested on: HOP-92
M19-MEL = tested on: M19-MEL
SNB-78 = tested on: SNB-78
LXFL 529 = tested on: LXFL 529
OVCAR-5 = tested on: OVCAR-5
CAKI-1 = tested on: CAKI-1
SR = tested on: SR
DMS-114 = tested on: DMS-114
XF498 = tested on: XF498
A498 = tested on: A498
HOP-18 = tested on: HOP-18
MCF7 = tested on: MCF7
NCI/ADR-RES = tested on: NCI/ADR-RES

SMILES	GI50 (TK-10)	GI50 (DMS-273)	GI50 (KM-20L2)	GI50 (DLD-1)	GI50 (HL-60)	GI50 (SNB-75)	GI50 (HOP-92)	GI50 (M19-MEL)	GI50 (SNB-78)	GI50 (LXFL 529)	GI50 (OVCAR-5)	GI50 (CAKI-1)	GI50 (SR)	GI50 (DMS-114)	GI50 (XF498)	GI50 (A498)	GI50 (HOP-18)	GI50 (MCF7)	GI50 (NCI/ADR-RES)
CCOC(=O)C1=C(Nc2ccccc2)SCC1=O	> 100 µM (inactive)	> 100 µM (inactive)	> 100 µM (inactive)	> 100 µM (inactive)	> 100 µM (inactive)	> 100 µM (inactive)	> 100 µM (inactive)	> 100 µM (inactive)	> 100 µM (inactive)	> 100 µM (inactive)	> 100 µM (inactive)	> 100 µM (inactive)	> 100 µM (inactive)	–	–	–	–	–	–
N#CC(C(=O)CCC(=O)Nc1cccc(C(F)(F)F)c1)c1ccccc1 (centres undefined)	> 100 µM (inactive)	> 100 µM (inactive)	> 100 µM (inactive)	> 100 µM (inactive)	> 100 µM (inactive)	> 100 µM (inactive)	> 100 µM (inactive)	> 100 µM (inactive)	> 100 µM (inactive)	> 100 µM (inactive)	> 100 µM (inactive)	> 100 µM (inactive)	–	> 100 µM (inactive)	> 100 µM (inactive)	> 100 µM (inactive)	–	–	–
Cc1nc2c(c(=O)[nH]1)S/C(=C(/C#N)c1nc3ccccc3[nH]1)N2c1ccccc1	> 100 µM (inactive)	> 100 µM (inactive)	> 100 µM (inactive)	> 100 µM (inactive)	> 100 µM (inactive)	> 100 µM (inactive)	> 100 µM (inactive)	> 100 µM (inactive)	0.607 µM (active)	> 100 µM (inactive)	> 100 µM (inactive)	> 100 µM (inactive)	> 100 µM (inactive)	> 100 µM (inactive)	> 100 µM (inactive)	> 100 µM (inactive)	–	–	–
CC(=O)CC(=O)/C=C/c1cccs1	> 100 µM (inactive)	–	98.6 µM (inactive)	44 µM (inactive)	27.9 µM (inactive)	–	–	83.9 µM (inactive)	–	85.3 µM (inactive)	> 100 µM (inactive)	> 100 µM (inactive)	48.1 µM (inactive)	59.4 µM (inactive)	–	64.9 µM (inactive)	–	–	–
O=C(O)/C=C/c1nc2ccccc2c(=O)o1	> 100 µM (inactive)	> 100 µM (inactive)	> 100 µM (inactive)	> 100 µM (inactive)	> 100 µM (inactive)	> 100 µM (inactive)	> 100 µM (inactive)	> 100 µM (inactive)	> 100 µM (inactive)	> 100 µM (inactive)	–	–	–	> 100 µM (inactive)	–	–	> 100 µM (inactive)	–	–
O=C(CCl)NNC1=Nc2ccc(Cl)cc2SC1	–	2.88 µM (inactive)	4.3 µM (inactive)	1.85 µM (inactive)	1.55 µM (inactive)	2.16 µM (inactive)	1.63 µM (inactive)	2.18 µM (inactive)	2.03 µM (inactive)	–	2.26 µM (inactive)	–	–	1.98 µM (inactive)	1.85 µM (inactive)	20.6 µM (inactive)	1.88 µM (inactive)	3.01 µM (inactive)	1.8 µM (inactive)
CN(C(=O)c1ccccc1)c1ccc2c(c1)C(=O)c1ccccc1C2=O	> 100 µM (inactive)	> 100 µM (inactive)	> 100 µM (inactive)	–	–	–	> 100 µM (inactive)	> 100 µM (inactive)	–	> 100 µM (inactive)	> 100 µM (inactive)	> 100 µM (inactive)	> 100 µM (inactive)	> 100 µM (inactive)	> 100 µM (inactive)	–	–	–	–
CSc1nc2c(ncn2C2OCC(O)C(O)C2O)c(=O)[nH]1 (centres undefined)	–	> 100 µM (inactive)	> 100 µM (inactive)	> 100 µM (inactive)	> 100 µM (inactive)	> 100 µM (inactive)	> 100 µM (inactive)	> 100 µM (inactive)	> 100 µM (inactive)	–	> 100 µM (inactive)	–	–	> 100 µM (inactive)	> 100 µM (inactive)	> 100 µM (inactive)	> 100 µM (inactive)	> 100 µM (inactive)	> 100 µM (inactive)
CN/N=C(\C(=O)Nc1ccc(C)c(C)c1)C(C(=O)OC)c1nc2ccc([N+](=O)[O-])cc2nc1O (centres undefined)	> 100 µM (inactive)	> 100 µM (inactive)	> 100 µM (inactive)	> 100 µM (inactive)	50.9 µM (inactive)	> 100 µM (inactive)	> 100 µM (inactive)	> 100 µM (inactive)	> 100 µM (inactive)	> 100 µM (inactive)	> 100 µM (inactive)	> 100 µM (inactive)	> 100 µM (inactive)	42.2 µM (inactive)	> 100 µM (inactive)	> 100 µM (inactive)	–	–	–
Cc1ccc(NP(=O)(Oc2ccccc2)N(CCCl)CCCl)cc1 (centres undefined)	> 100 µM (inactive)	> 100 µM (inactive)	76.7 µM (inactive)	23.9 µM (inactive)	44 µM (inactive)	> 100 µM (inactive)	96.4 µM (inactive)	28.7 µM (inactive)	> 100 µM (inactive)	99.3 µM (inactive)	39.3 µM (inactive)	> 100 µM (inactive)	95.5 µM (inactive)	34.4 µM (inactive)	–	58.7 µM (inactive)	> 100 µM (inactive)	–	–
O=c1[nH]c(=O)n(C2OC3COC2C3O)cc1F (centres undefined)	> 100 µM (inactive)	> 100 µM (inactive)	> 100 µM (inactive)	> 100 µM (inactive)	> 100 µM (inactive)	> 100 µM (inactive)	29.8 µM (inactive)	–	> 100 µM (inactive)	> 100 µM (inactive)	> 100 µM (inactive)	> 100 µM (inactive)	–	–	> 100 µM (inactive)	–	> 100 µM (inactive)	–	–
CCCCCn1cc2c3c(cccc31)C1C=C(C)CN(C)[C@@H]1C2.Cc1ccc(C(=O)OC(C(=O)O)C(OC(=O)c2ccc(C)cc2)C(=O)O)cc1 (centres undefined)	–	3.92 µM (inactive)	3.83 µM (inactive)	6.12 µM (inactive)	1.35 µM (inactive)	5.42 µM (inactive)	1.6 µM (inactive)	4.48 µM (inactive)	13.7 µM (inactive)	–	9.89 µM (inactive)	5.69 µM (inactive)	–	3.47 µM (inactive)	2.67 µM (inactive)	8.83 µM (inactive)	2.33 µM (inactive)	4.03 µM (inactive)	6.17 µM (inactive)
O=C1OC2(CC1C1(O)C3CC4CC(C3)CC1C4)C1CC3CC(C1)CC2C3 (centres undefined)	> 100 µM (inactive)	> 100 µM (inactive)	–	> 100 µM (inactive)	> 100 µM (inactive)	40.8 µM (inactive)	–	> 100 µM (inactive)	> 100 µM (inactive)	> 100 µM (inactive)	–	–	–	82 µM (inactive)	9.77 µM (inactive)	28.1 µM (inactive)	6.61 µM (inactive)	–	–
O=C1Nc2cc([N+](=O)[O-])c(Br)cc2C1=O	> 100 µM (inactive)	20.1 µM (inactive)	15.3 µM (inactive)	22.2 µM (inactive)	–	19 µM (inactive)	24.5 µM (inactive)	16.4 µM (inactive)	23.3 µM (inactive)	–	–	19.1 µM (inactive)	10.2 µM (inactive)	17.5 µM (inactive)	12.1 µM (inactive)	> 100 µM (inactive)	–	–	–
N#C/C(=C\c1ccncc1)c1csc2ccccc12	–	26.3 µM (inactive)	20 µM (inactive)	28.3 µM (inactive)	15.1 µM (inactive)	24.4 µM (inactive)	20.9 µM (inactive)	31.8 µM (inactive)	23.8 µM (inactive)	–	42.3 µM (inactive)	27.4 µM (inactive)	–	–	22.3 µM (inactive)	21.3 µM (inactive)	31.1 µM (inactive)	25 µM (inactive)	22.1 µM (inactive)
Cc1ccc2[nH]c3c(C)c4ccncc4c(C)c3c2c1	3.81 µM (inactive)	0.155 µM (active)	0.815 µM (active)	0.333 µM (active)	1.22 µM (inactive)	1.65 µM (inactive)	0.553 µM (active)	1.36 µM (inactive)	1.73 µM (inactive)	1.15 µM (inactive)	1.37 µM (inactive)	0.906 µM (active)	0.528 µM (active)	0.369 µM (active)	1.6 µM (inactive)	1.5 µM (inactive)	0.252 µM (active)	0.908 µM (active)	0.513 µM (active)
COc1cc(C2C(Cl)C(=O)N2NC(=O)c2ccccc2O)ccc1O (centres undefined)	> 100 µM (inactive)	> 100 µM (inactive)	–	> 100 µM (inactive)	> 100 µM (inactive)	–	–	> 100 µM (inactive)	> 100 µM (inactive)	> 100 µM (inactive)	–	–	–	> 100 µM (inactive)	> 100 µM (inactive)	45.9 µM (inactive)	34.8 µM (inactive)	–	–
